pIC50: −log10 of the molar value.
Legend:
Canis familiaris [1] = test: Reduction in mean arterial pressure in anesthetized dog cardiovascular model in presence of hexamethonium; conditions: in vivo
[2] = Unbound intrinsic clearance in mouse microsomes; format: ADME, Microsome
Canis familiaris [3] = test: Reduction in dP/dtmax in anesthetized dog cardiovascular model at plasma concentration of 7.7 uM in presence of hexamethonium; format: ADME, organism-based, Canis lupus familiaris; set-up: scale not given: the % may be the effect or the level left; conditions: in vivo
[4] = Inhibition of human recombinant […] expressed in Sf21 cells using Bio-cdc peptide substrate and ATP after 60 mins by time-resolved fluorescence in-vitro kinase assay
[5] = Oral bioavailability in rat at 3 mg/kg; format: ADME, organism-based; conditions: in vivo
[6] = Plasma clearance in rat at 1 mg/kg, iv or 3 mg/kg, po; format: ADME, organism-based
[7] = Plasma clearance in mouse at 3 mg/kg, iv or 10 mg/kg, po; format: ADME, organism-based
[8] = molecular target: T1, Protein kinase C zeta type (Homo sapiens, UniProt Q05513); test: Inhibition of human recombinant PKCzeta expressed in Sf21 cells using Bio-cdc peptide substrate and ATP after 60 mins by time-resolved fluorescence in-vitro kinase assay
T1 sequence (Q05513 whole entry): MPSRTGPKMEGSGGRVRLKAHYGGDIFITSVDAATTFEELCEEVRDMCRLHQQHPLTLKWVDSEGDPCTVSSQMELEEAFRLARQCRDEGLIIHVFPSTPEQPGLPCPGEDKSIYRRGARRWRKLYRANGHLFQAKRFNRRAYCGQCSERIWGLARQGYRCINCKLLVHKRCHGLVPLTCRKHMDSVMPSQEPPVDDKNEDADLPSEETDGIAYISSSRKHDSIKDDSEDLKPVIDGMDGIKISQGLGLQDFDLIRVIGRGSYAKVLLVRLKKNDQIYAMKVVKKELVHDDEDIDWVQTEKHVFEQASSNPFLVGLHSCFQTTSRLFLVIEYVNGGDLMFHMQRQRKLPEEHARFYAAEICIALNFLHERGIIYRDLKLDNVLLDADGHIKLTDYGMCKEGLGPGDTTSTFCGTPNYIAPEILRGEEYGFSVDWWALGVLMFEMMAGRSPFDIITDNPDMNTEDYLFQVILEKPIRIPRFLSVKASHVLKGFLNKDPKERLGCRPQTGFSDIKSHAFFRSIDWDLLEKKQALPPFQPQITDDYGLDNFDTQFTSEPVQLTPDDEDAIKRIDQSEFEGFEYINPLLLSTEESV

[9] = Cmax in mouse at 3 mg/kg, iv or 10 mg/kg, po; format: ADME, organism-based; conditions: in vivo
[10] = Half life in rat at 1 mg/kg, iv or 3 mg/kg, po; format: ADME, organism-based; conditions: in vivo
Canis familiaris [11] = test: Reduction in mean arterial pressure in anesthetized dog cardiovascular model at plasma concentration of 7.7 uM in presence of hexamethonium; format: ADME, organism-based, Canis lupus familiaris; conditions: in vivo
[12] = AUC in rat at 1 mg/kg, iv or 3 mg/kg, po; format: ADME, organism-based; conditions: plasma
[13] = Unbound intrinsic clearance in human microsomes; format: ADME, Microsome
[14] = Unbound intrinsic clearance in rat microsomes; format: ADME, Microsome
[15] = Cmax in rat at 1 mg/kg, iv or 3 mg/kg, po; format: ADME, organism-based; conditions: in vivo
Canis familiaris [16] = test: Reduction in dP/dtmax in anesthetized dog cardiovascular model at plasma concentration of 2.2 uM in presence of hexamethonium; format: ADME, organism-based, Canis lupus familiaris; set-up: scale not given: the % may be the effect or the level left; conditions: in vivo
[17] = molecular target: Protein kinase C delta type (Homo sapiens, UniProt Q05655); test: Inhibition of human recombinant PKCdelta expressed in Sf21 cells using Bio-cdc peptide substrate and ATP after 60 mins by time-resolved fluorescence in-vitro kinase assay
Chain of Protein kinase C delta type (Q05655 whole entry): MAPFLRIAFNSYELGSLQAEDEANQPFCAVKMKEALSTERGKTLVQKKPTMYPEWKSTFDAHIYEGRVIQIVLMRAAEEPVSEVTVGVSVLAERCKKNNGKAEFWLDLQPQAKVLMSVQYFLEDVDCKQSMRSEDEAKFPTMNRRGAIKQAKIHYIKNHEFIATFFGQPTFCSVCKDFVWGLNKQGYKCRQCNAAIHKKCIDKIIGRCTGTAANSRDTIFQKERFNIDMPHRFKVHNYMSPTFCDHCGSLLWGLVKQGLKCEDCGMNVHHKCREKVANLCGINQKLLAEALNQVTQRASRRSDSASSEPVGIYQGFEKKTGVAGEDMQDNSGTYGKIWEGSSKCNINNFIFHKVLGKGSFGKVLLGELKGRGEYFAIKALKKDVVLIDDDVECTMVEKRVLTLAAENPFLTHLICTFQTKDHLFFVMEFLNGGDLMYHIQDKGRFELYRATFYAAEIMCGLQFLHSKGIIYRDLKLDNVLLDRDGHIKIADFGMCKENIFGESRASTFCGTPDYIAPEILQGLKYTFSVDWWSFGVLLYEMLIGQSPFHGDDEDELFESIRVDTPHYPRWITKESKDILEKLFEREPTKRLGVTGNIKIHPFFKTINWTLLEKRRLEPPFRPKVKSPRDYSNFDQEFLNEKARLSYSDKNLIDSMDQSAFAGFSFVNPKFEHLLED

[18] = AUC in mouse at 3 mg/kg, iv or 10 mg/kg, po; format: ADME, organism-based; conditions: plasma
Canis familiaris [19] = test: Reduction in mean arterial pressure in anesthetized dog cardiovascular model at plasma concentration of 1.7 uM; format: ADME, organism-based, Canis lupus familiaris; conditions: in vivo
Rattus norvegicus [20] = test: Reduction in heart rate in rat cardiovascular model at 3 to 30 mg/kg dosed over 30 mins infusions; conditions: in vivo, iv, 0.5 h
Rattus norvegicus [21] = test: Effect on left ventricular dP/dt50 in rat cardiovascular model at 3 to 30 mg/kg dosed over 30 mins infusions; conditions: in vivo, iv, 0.5 h
[22] = Half life in mouse at 3 mg/kg, iv or 10 mg/kg, po; format: ADME, organism-based; conditions: in vivo
[23] = molecular target: Protein kinase C gamma type (Homo sapiens, UniProt P05129); test: Inhibition of human recombinant PKCgamma expressed in Sf21 cells using Bio-cdc peptide substrate and ATP after 60 mins by time-resolved fluorescence in-vitro kinase assay
Canis familiaris [24] = test: Reduction in mean arterial pressure in anesthetized dog cardiovascular model at plasma concentration of 6.9 uM; format: ADME, organism-based, Canis lupus familiaris; conditions: in vivo
[25] = Oral bioavailability in mouse at 10 mg/kg; format: ADME, organism-based; conditions: in vivo
[26] = Permeability from apical to basolateral side in MDCK2-MDR1 cells at pH 7.4; format: ADME, cell-based, Canis lupus familiaris, MDCK-II; conditions: dog, MDCK-MDR1, pH 7.4; read-out: permeability
[27] = molecular target: Voltage-gated inwardly rectifying potassium channel KCNH2 (Homo sapiens, UniProt Q12809); test: Inhibition of human ERG
Chain of Voltage-gated inwardly rectifying potassium channel KCNH2 (Q12809 whole entry): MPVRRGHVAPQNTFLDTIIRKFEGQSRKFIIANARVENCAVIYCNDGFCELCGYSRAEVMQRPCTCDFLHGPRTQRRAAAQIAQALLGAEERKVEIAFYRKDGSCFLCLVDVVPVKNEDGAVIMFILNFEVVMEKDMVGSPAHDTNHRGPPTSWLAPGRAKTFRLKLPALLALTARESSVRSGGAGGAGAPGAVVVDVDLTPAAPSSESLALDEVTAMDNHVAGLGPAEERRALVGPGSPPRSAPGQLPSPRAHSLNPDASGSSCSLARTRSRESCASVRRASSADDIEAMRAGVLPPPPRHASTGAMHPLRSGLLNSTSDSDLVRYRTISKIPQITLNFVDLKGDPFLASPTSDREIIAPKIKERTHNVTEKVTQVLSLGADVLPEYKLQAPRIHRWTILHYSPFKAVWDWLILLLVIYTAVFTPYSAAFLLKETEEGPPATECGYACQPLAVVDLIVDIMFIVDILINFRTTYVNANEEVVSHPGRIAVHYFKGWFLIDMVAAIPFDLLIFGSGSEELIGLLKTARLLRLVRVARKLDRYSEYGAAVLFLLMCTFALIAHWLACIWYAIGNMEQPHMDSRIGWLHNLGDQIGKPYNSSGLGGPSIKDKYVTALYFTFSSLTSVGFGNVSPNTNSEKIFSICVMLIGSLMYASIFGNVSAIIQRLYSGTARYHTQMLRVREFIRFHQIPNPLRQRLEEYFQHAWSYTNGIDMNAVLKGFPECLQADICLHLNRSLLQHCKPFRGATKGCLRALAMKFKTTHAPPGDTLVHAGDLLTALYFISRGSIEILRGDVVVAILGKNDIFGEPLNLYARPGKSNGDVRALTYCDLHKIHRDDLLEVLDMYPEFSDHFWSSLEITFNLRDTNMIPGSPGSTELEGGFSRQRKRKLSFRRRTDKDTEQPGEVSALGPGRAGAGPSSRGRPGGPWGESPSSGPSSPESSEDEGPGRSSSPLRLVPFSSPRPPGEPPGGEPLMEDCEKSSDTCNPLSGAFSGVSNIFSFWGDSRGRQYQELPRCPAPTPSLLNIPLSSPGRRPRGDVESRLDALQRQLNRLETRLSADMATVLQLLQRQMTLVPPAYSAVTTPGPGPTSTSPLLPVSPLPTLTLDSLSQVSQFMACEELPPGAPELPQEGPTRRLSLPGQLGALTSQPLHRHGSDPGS

Canis familiaris [28] = test: Increase in dP/dtma in anesthetized dog cardiovascular model at plasma concentration of 7.7 uM; conditions: in vivo
[29] = molecular target: T2, Protein kinase C epsilon type (Homo sapiens, UniProt Q02156); test: Inhibition of human recombinant PKCepsilon expressed in Sf21 cells using Bio-cdc peptide substrate and ATP after 60 mins by time-resolved fluorescence in-vitro kinase assay
T2 sequence (Q02156 whole entry): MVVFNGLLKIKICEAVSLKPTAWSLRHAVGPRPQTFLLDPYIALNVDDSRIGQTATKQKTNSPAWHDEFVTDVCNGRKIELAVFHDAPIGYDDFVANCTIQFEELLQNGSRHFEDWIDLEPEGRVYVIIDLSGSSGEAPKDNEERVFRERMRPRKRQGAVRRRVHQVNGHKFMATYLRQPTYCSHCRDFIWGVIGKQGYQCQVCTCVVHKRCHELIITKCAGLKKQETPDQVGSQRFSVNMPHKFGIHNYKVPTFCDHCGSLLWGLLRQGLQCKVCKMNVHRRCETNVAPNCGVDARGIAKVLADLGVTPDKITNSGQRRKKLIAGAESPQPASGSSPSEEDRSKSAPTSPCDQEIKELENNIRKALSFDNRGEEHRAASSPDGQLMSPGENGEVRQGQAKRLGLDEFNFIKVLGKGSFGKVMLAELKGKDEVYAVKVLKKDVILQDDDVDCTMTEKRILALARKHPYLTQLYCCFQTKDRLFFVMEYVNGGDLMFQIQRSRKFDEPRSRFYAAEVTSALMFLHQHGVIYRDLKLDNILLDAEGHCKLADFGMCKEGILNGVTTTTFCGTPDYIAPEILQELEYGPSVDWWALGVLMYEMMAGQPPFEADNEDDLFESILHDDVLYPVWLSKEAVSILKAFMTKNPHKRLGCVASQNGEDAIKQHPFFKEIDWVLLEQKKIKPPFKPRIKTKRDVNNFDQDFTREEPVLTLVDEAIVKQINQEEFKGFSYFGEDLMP

[30] = molecular target: Protein kinase C beta type (Homo sapiens, UniProt P05771); test: Inhibition of human recombinant PKCbeta expressed in Sf21 cells using Bio-cdc peptide substrate and ATP after 60 mins by time-resolved fluorescence in-vitro kinase assay
Chain of Protein kinase C beta type (P05771 whole entry, the tested form may be a part): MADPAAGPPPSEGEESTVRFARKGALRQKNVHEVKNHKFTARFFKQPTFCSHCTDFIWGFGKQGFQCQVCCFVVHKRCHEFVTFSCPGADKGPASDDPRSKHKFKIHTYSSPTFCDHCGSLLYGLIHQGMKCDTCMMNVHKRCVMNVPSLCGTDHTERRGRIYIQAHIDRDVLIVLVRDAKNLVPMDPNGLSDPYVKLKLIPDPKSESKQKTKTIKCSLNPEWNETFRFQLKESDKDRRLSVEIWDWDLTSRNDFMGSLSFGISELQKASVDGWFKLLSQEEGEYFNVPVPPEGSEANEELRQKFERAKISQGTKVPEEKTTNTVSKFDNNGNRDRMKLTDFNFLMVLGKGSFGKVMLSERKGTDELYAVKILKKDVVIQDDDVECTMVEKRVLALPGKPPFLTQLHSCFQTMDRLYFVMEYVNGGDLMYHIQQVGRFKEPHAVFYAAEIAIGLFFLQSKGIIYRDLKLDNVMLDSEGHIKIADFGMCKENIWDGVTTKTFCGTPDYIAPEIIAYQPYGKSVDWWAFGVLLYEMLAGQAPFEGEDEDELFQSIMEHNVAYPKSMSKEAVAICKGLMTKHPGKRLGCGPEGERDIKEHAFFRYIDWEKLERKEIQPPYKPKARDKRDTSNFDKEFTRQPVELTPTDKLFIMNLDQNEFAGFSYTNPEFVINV

Rattus norvegicus [31] = test: Reduction in mean arterial pressure in rat cardiovascular model at 3 to 30 mg/kg dosed over 30 mins infusions; conditions: in vivo, iv, 0.5 h
Canis familiaris [32] = test: Reduction in dP/dtma in anesthetized dog cardiovascular model at plasma concentration of 1.7 uM; format: ADME, organism-based, Canis lupus familiaris; set-up: scale not given: the % may be the effect or the level left; conditions: in vivo
cells = conditions: Homo sapiens, T-Blast, 24 h
Description: Inhibition of anti-CD3/anti-CD28 antibody-induced IL2 production in human T-Blast cells after 24 hrs

[33] = molecular target: Protein kinase C alpha type (Homo sapiens, UniProt P17252)
Mus musculus [34] = test: Toxicity in DBA/J mouse model of glucose 6-phosphate isomerase-induced athritis at 100 mg/kg, po dosed twice daily for >10 days; format: organism-based; set-up: dose 100 mg/kg, route oral; conditions: in vivo, 240 h
[35] = Plasma concentration in concanavalin A-induced Balb/c mouse at 100 mg/kg, po dosed 2 hrs before concanavalin A challenge; format: ADME, organism-based; set-up: dose 100 mg/kg, route oral
[36] = Plasma concentration in concanavalin A-induced Balb/c mouse at 3 mg/kg, po dosed 2 hrs before concanavalin A challenge; format: ADME, organism-based; set-up: dose 3 mg/kg, route oral
[37] = AUC (0 to t) in DBA/J mouse model of glucose 6-phosphate isomerase-induced athritis at 30 mg/kg, po dosed twice daily from day 1 to day 17; format: ADME, organism-based; set-up: dose 30 mg/kg, route oral; conditions: in vivo
[38] = Plasma concentration in concanavalin A-induced Balb/c mouse at 30 mg/kg, po dosed 2 hrs before concanavalin A challenge; format: ADME, organism-based; set-up: dose 30 mg/kg, route oral
Mus musculus [39] = test: Reduction in paw swelling in DBA/J mouse model of glucose 6-phosphate isomerase-induced athritis at 30 mg/kg, po dosed twice daily from day 1 to day 17; format: functional
[40] = AUC (0 to t) in DBA/J mouse model of glucose 6-phosphate isomerase-induced athritis at 10 mg/kg, po dosed twice daily from day 1 to day 17; format: ADME, organism-based; set-up: dose 10 mg/kg, route oral; conditions: in vivo
Mus musculus [41] = test: Reduction in paw swelling in DBA/J mouse model of glucose 6-phosphate isomerase-induced athritis at 10 mg/kg, po dosed twice daily from day 1 to day 17; format: functional
[42] = Plasma concentration in concanavalin A-induced Balb/c mouse at 10 mg/kg, po dosed 2 hrs before concanavalin A challenge; format: ADME, organism-based; set-up: dose 10 mg/kg, route oral
[43] = Fraction unbound in mouse plasma; format: ADME, cell-free
[44] = Plasma concentration in concanavalin A-induced Balb/c mouse at 1 mg/kg, po dosed 2 hrs before concanavalin A challenge; format: ADME, organism-based; set-up: dose 1 mg/kg, route oral

CL free [2] [L/h/kg] | bioavailability [5] [%] | clearance [6] [mL/min/kg] | clearance [7] [mL/min/kg] | Cmax [9] [ng/mL] | half-life [10] [min] | AUC [12] [ng·h/mL] | CL free [13] [L/h/kg] | CL free [14] [L/h/kg] | Cmax [15] [ng/mL] | AUC [18] [ng·h/mL] | half-life [22] [min] | bioavailability [25] [%] | Papp A→B [26] [×10⁻⁶ cm/s] | pIC50 (cells) | pIC50 [33] | SMILES | pIC50 [27] | other results
< 8.3 | 28 | 35 | 96.7 | 342 | 330 | 409 | 4.8 | < 4.7 | 80 | 1730 | 162 | 85 | 0.44 | 6.66 | 5.34 | C[C@@H]1C(=O)NN=C2COc3cc(C(F)(F)F)c(NC4CNC4)cc3N21 | < 4.52 | Activity (Canis familiaris [1]): -3 mmHg; Activity (Canis familiaris [3]): -7%; pIC50 [4]: 5.41; pIC50 [8]: 4.48; Activity (Canis familiaris [11]): -12 mmHg; Activity (Canis familiaris [16]): -4%; pIC50 [17]: 6.33; Activity (Canis familiaris [19]): 1 mmHg; Activity (Rattus norvegicus [20]): Toxic; Activity (Rattus norvegicus [21]): Non-toxic; pIC50 [23]: 5.11; Activity (Canis familiaris [24]): 3 mmHg; Activity (Canis familiaris [28]): 34%; pIC50 [29]: 6.85; pIC50 [30]: 5.82; Activity (Rattus norvegicus [31]): Toxic; Activity (Canis familiaris [32]): 3%
< 5.7 | 74 | 45 | 25 | 846 | 282 | 782 | < 2 | < 3.3 | 160 | 9260 | 186 | 108 | 1.5 | 6.92 | 5.77 | C[C@@H]1C(=O)NN=C2COc3cc(C(F)(F)F)c(NC4(C)CNC4)cc3N21 | < 4.52 | Activity (Mus musculus [34]): Toxic; concentration at 2 h [35]: 2500 nM; concentration at 2 h [36]: 110 nM; AUC(0-t) [37]: 15100 ng·h/mL; concentration at 2 h [38]: 900 nM; inhibition in vivo at 30 mg/kg (Mus musculus [39]): 100%; AUC(0-t) [40]: 4500 ng·h/mL; inhibition in vivo at 10 mg/kg (Mus musculus [41]): 62%; concentration at 2 h [42]: 310 nM; fraction unbound [43]: 0.27; concentration at 2 h [44]: 37 nM

— ChEMBL document CHEMBL3352377, “Discovery of selective and orally bioavailable protein kinase Cθ (PKCθ) inhibitors from a fragment hit” (J Med Chem, 2015)
